Values after ≈ are worked out from the molar mass of the structure shown.
Legend:
[1] = test system: increase in blood glucose level; assay: inhibitory action against increase in blood glucose level in rats (oral sucrose load); assay type: in vivo, SD-Strain rats; conditions: per os, 1 ml/100 g of sucrose solution (2 g/10 ml) containing 30 mg test compound, 180 minutes after administration
Experimental: INHIBITORY ACTION AGAINST INCREASE IN BLOOD GLUCOSE LEVEL IN RATS
SD-Strain rats (5 weeks age; male; each group comprising 4 to 5 rats) were fasted overnight and then given 1 ml/100 g body weight of aqueous solution of sucrose (2 g/10 ml) containing 30 mg test compound per os through a stomach tube.
Blood was taken from the tail vein immediately before the administration and at 30, 60, 90, 120 and 180 minutes thereafter and blood glucose levels were measured by a glucose oxidase method (using the assay kit prepared by Boehringer Mannheim).
Based on the values obtained above, a graph was drawn using time as the abscissa and blood glucose level as the ordinate and the area (ΔAUC)under the time-blood glucose increase curve was determined.
A group of rats receiving only water and another group receiving only sucrose were designated as a basal group (group B) and a control group (group C), respectively. Then the inhibitory rate for an increase in ΔAUC 180 minutes after administration of the test compounds (group T) was calculated from the following expression. [formula]

[2] = biological target: maltase; assay: alpha-glucosidase inhibiting action in vitro: maltase; assay type: biochemical, rabbit; conditions: 50 mM maltose, pH 7.0, 37° C., 30 minutes; for IC50, Maltase: crudely purified enzyme from rabbit small intestine mucosa, average of three measurements (* four); for inhibitory rate, Maltase: ** inhibitory rate at 100 μg/ml
Experimental: (§1) MEASUREMENT OF ALPHA-GLUCOSIDASE INHIBITING ACTION IN VITRO
(§2) The activity of the test compounds in inhibiting sucrase and maltase in vitro using a crudely purified enzyme preparation (purified in accordance with a method of Takesue, 1969) obtained from rabbit small intestine mocosa was carried out as follows.
(§3) To 40 microliters of enzyme solution diluted with 0.4M phosphate buffer (pH 7.0) are added 20 microliters of a solution of a test compound in the same buffer and 140 microliters of a solution of a substrate (50 mM sucrose or 50 mM maltose) in the same buffer and the mixture is allowed to react at 37° C. for 30 minutes. The reaction is then stopped by adding 400 microliters of 3N barium hydroxide and 400 microliters of 5% zinc sulfate solution. The amount of the enzyme that is reacted is determined as the amount of glucose contained in 200 microliters of the supernatant liquid of the reaction solution by adding 3 ml of glucoseoxidase reagent (Bioehringer-Mannheim) followed by reacting at ambient temperature for 30 minutes and measuring the absorbance at 420 nm. The concentration of the compound that provides 50% inhibition (IC50) of sucrase and maltase is calculated by expressing the values (as measured by the above method with five different concentrations) as an inhibitory rate (%) to the control.

[3] = biological target: T1, sucrase (Oryctolagus cuniculus, UniProt P07768); assay: alpha-glucosidase inhibiting action in vitro: sucrase; assay type: biochemical, rabbit; conditions: 50 mM sucrose, pH 7.0, 37° C., 30 minutes; for IC50: IC50, Sucrase, crudely purified enzyme from rabbit small intestine mucosa, average of three measurements (* four)
T1 construct: from tissue; host or cells: rabbit small intestine mucosa, crudely purified by a method of Takesue, 1969
Experimental: as §1, §2, §3

[4] = test system: mice; assay: oral toxicity in mice; assay type: in vivo; conditions: orally, 5 g/kg
Experimental: The toxicity of the compounds (I) was tested by giving the compound of Example 1 orally to mice (5 g/kg) but there were no deaths.

T1 sequence (P07768 1008-1827 limits assumed): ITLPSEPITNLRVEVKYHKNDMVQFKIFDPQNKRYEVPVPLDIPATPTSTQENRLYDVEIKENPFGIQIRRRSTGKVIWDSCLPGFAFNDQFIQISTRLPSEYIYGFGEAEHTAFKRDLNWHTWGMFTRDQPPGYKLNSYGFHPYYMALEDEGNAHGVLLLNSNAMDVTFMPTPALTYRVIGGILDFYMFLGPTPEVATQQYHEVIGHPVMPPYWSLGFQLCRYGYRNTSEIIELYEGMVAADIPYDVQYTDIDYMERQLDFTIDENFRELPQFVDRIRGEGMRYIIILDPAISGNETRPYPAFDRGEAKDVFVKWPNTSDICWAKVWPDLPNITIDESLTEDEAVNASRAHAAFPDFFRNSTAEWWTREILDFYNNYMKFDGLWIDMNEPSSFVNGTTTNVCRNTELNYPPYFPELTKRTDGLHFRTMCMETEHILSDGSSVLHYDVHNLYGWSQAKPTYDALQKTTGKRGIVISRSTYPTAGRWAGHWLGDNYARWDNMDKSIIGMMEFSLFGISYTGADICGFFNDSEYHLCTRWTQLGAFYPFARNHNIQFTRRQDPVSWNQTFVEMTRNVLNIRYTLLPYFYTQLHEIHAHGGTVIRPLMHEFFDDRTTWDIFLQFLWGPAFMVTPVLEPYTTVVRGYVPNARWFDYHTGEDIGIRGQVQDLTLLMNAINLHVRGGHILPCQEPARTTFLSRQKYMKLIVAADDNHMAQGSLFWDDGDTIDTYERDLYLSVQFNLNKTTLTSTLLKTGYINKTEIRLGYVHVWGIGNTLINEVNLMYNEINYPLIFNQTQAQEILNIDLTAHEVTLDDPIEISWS
T1 sequence (P07768 2-1007 partner limits assumed): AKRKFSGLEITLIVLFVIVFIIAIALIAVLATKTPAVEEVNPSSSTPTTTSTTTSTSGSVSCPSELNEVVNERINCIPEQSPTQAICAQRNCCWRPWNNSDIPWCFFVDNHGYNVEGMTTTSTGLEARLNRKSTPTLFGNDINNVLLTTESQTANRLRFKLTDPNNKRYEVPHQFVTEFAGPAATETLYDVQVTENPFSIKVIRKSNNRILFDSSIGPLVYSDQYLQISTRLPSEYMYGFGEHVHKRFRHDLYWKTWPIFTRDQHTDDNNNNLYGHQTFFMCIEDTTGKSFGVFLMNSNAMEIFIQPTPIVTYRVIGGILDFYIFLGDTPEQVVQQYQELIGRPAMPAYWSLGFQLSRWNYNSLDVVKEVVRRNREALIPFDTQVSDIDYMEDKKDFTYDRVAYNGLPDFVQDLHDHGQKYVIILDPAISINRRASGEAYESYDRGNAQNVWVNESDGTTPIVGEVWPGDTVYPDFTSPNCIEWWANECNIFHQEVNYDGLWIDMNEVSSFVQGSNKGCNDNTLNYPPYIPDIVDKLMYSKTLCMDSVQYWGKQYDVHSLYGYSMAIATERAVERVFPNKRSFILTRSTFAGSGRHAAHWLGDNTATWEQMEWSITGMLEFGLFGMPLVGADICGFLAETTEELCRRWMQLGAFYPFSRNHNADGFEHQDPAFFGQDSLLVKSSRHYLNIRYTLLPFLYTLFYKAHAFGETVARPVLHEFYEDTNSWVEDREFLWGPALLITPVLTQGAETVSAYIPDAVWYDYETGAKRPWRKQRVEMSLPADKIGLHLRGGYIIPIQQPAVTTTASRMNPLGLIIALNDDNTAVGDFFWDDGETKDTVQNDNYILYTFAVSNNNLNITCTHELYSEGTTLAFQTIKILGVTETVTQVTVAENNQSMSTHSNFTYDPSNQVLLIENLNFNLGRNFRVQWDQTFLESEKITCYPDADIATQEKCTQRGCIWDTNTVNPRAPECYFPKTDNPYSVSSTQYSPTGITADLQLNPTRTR

inhibition at 100 µg/mL ([3]; ** inhibitory rate at 100 μg/ml) [%]	SMILES	Inhibitory Rate (%) for increase in ΔAUC of blood glucose [1] [%]	IC50, Maltase [2] [µg/mL]	IC50 [3] [µM]	inhibitory rate, Maltase [2] [%]	deaths [4]
	CCCCCCCCCN1C[C@H](O)[C@@H](O)[C@H](O[C@H]2O[C@H](CO)[C@@H](O)[C@H](O)[C@H]2O)[C@H]1CO [Example 17, 4-O-alpha-D-Glucopyranosyl-N-nonylmoranoline hydrate]	80.2	77.9	11.5		
	Cc1ccc(CN2C[C@H](O)[C@@H](O)[C@H](O[C@H]3O[C@H](CO)[C@@H](O)[C@H](O)[C@H]3O)[C@H]2CO)cc1 [Example 25, 4-O-alpha-D-Glucopyranosyl-N-(p-methylbenzyl)moranoline p-toluenesulfonate]	84.4	69.2 (≈ 161 µM)	32.6		
	CC(C)=CCN1C[C@H](O)[C@@H](O)[C@H](O[C@H]2O[C@H](CO)[C@@H](O)[C@H](O)[C@H]2O)[C@H]1CO [Example 3, 4-O-alpha-D-Glucopyranosyl-N-(3-methylcrotyl)moranoline p-toluensulfonate]	73.2	248.9 (≈ 633 µM)	43.7		
	OC[C@@H]1[C@@H](O[C@H]2O[C@H](CO)[C@@H](O)[C@H](O)[C@H]2O)[C@H](O)[C@@H](O)CN1CCc1ccccc1 [Example 19, 4-O-alpha-D-Glucopyranosyl-N-phenethylmoranoline p-toluenesulfonate]	54.0				
	Cc1ccc(CN2C[C@H](O)[C@@H](O)[C@H](O[C@H]3O[C@H](CO)[C@@H](O)[C@H](O)[C@H]3O)[C@H]2CO)cc1 [Example 1, 4-O-alpha-D-Glucopyranosyl-N-(p-methylbenzyl)-moranoline]	68.6		36.1	23.5	no deaths
	COC(=O)CCCCN1C[C@H](O)[C@@H](O)[C@H](O[C@H]2O[C@H](CO)[C@@H](O)[C@H](O)[C@H]2O)[C@H]1CO [Example 18, 4-O-alpha-D-Glucopyranosyl-N-(4-methoxycarbonylbutyl)moranoline p-toluenesulfonate]	47.9	44.6 (≈ 101 µM)	45.1		
	COc1ccc(CN2C[C@H](O)[C@@H](O)[C@H](O[C@H]3O[C@H](CO)[C@@H](O)[C@H](O)[C@H]3O)[C@H]2CO)cc1 [Example 8, 4-O-alpha-D-Glucopyranosyl-N-(p-methoxybenzyl)moranoline]	54.8	173.0 (≈ 388 µM)	55.7		
21.9	O=C(O)c1ccc(CN2C[C@H](O)[C@@H](O)[C@H](O[C@H]3O[C@H](CO)[C@@H](O)[C@H](O)[C@H]3O)[C@H]2CO)cc1 [Example 12, 4-O-alpha-D-Glucopyranosyl-N-(4-carboxybenzyl)moranoline p-toluenesulfonate]	46.6			2.0	
	OC[C@@H]1[C@@H](O[C@H]2O[C@H](CO)[C@@H](O)[C@H](O)[C@H]2O)[C@H](O)[C@@H](O)CN1Cc1ccc(Br)cc1 [Example 4, 4-O-alpha-D-Glucopyranosyl-N-(p-bromobenzyl)moranoline]		34.2 (≈ 69.2 µM)	20.2		
	OC[C@@H]1[C@@H](O[C@H]2O[C@H](CO)[C@@H](O)[C@H](O)[C@H]2O)[C@H](O)[C@@H](O)CN1CC(O)COc1ccccc1 (stereo partly drawn) [Example 22, 4-O-alpha-D-Glucopyranosyl-N-(2-hydroxy-3-phenoxypropyl)moranoline p-toluenesulfonate hydrate]	48.4	40.9	33.9		
	CCCCCCN1C[C@H](O)[C@@H](O)[C@H](O[C@H]2O[C@H](CO)[C@@H](O)[C@H](O)[C@H]2O)[C@H]1CO [Example 5, 4-O-alpha-D-Glucopyranosyl-N-hexylmoranoline p-toluenesulfonate]	94.8				
	C=CCN1C[C@H](O)[C@@H](O)[C@H](O[C@H]2O[C@H](CO)[C@@H](O)[C@H](O)[C@H]2O)[C@H]1CO [Example 13, 4-O-alpha-D-Glucopyranosyl-N-allylmoranoline p-toluenesulfonate]	77.1	262.1 (≈ 717 µM)	62.7		
	OC[C@@H]1[C@@H](O[C@H]2O[C@H](CO)[C@@H](O)[C@H](O)[C@H]2O)[C@H](O)[C@@H](O)CN1CCCCOc1ccccc1 [Example 14, 4-O-alpha-D-Glucopyranosyl-N-(4-phenoxybutyl)-moranoline]	86.9	168.6 (≈ 356 µM)	14.4		
	OC[C@@H]1[C@@H](O[C@H]2O[C@H](CO)[C@@H](O)[C@H](O)[C@H]2O)[C@H](O)[C@@H](O)CN1CCOc1ccccc1 [Example 9, 4-O-alpha-D-Glucopyranosyl-N-(beta-phenoxyethyl)moranoline]	64.5	223.6 (≈ 502 µM)	14.4		
	OC[C@@H]1[C@@H](O[C@H]2O[C@H](CO)[C@@H](O)[C@H](O)[C@H]2O)[C@H](O)[C@@H](O)CN1CCc1ccccc1 [Example 6, 4-O-alpha-D-Glucopyranosyl-N-(beta-phenylethyl)moranoline]	69.9	192.5 (≈ 448 µM)	71.7		
	OC[C@@H]1[C@@H](O[C@H]2O[C@H](CO)[C@@H](O)[C@H](O)[C@H]2O)[C@H](O)[C@@H](O)CN1CC=Cc1ccccc1 [Example 20, 4-O-alpha-D-Glucopyranosyl-N-cinnamylmoranoline p-toluenesulfonate]	76.8	284.9 (≈ 645 µM)	22		
